Measured values reported in US20260021167A1, “COMPOSITIONS AND METHODS FOR TREATING OR PREVENTING NEURODEGENERATIVE DISEASES” (Delaware State University, priority 2022, published 2026).

Legend:
[1] = molecular target: T1, SENP-1 (Rattus norvegicus, UniProt A0A0G2JVG1); assay: Western blot of SENP-1 level in PFF-exposed N27p cells; assay type: cell-based; conditions: PFF exposure, compared with PFF only
T1 construct: endogenous in cells; host or cells: N27p (N27 parental) rat dopaminergic cells
T1 sequence (A0A0G2JVG1 1-672): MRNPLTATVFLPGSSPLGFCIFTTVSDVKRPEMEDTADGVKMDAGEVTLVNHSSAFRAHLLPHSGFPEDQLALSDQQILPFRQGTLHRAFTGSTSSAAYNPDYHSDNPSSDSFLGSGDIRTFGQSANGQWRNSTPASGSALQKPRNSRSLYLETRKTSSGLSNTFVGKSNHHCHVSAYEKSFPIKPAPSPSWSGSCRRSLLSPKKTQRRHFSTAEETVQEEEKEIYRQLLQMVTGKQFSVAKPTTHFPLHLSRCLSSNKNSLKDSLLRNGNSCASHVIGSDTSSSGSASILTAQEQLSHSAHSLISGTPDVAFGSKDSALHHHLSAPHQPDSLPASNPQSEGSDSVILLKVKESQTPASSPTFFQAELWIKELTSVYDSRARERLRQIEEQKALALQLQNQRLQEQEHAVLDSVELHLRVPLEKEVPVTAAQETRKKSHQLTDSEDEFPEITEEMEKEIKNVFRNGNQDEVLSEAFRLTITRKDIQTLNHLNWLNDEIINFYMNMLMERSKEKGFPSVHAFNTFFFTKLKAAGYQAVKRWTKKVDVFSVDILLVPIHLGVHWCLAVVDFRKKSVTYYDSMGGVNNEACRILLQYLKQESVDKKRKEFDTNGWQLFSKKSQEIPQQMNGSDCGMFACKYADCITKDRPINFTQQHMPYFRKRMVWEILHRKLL
Source text: A) The RNA interference suppressed the expression level of SENP-1, which enhanced SUMO-1 level. […] One-Way ANOVA, Dunnett's test was applied for statistical analysis in comparison with PFF only (#). *: p<0.05, **: p<0.01, p<0.001 and n.s.: not significant.

[2] = tested on: SUMO-1 conjugated α-synuclein; assay: Western blot of SUMO-1 conjugated α-synuclein in α-synuclein IP tissue samples; assay type: in vivo, mouse; conditions: PFF-injected mice, vs PFF only
Description: A) In Western blots, Momordin reversed the toxicity from PFF injection in reducing phospho-α-synuclein and SENP-1 on α-synuclein in the MB and STR. […] A pathological marker, phosphorylated α-synuclein was increased by PFF injection, which was reversed by Momordin treatment in the MB (F) and the STR (G).
A mouse model of Parkinson's disease is C57BL/6 male or female mice (50% each) injected with 5 μg of mouse PFF at 12 months old, followed by a treatment below for 6-7 weeks: • 1) without PFF injection, followed by vehicle (control, n=7); • 2) PFF injection, followed by vehicle (PFF only: control, n=8); • 3) PFF injection, followed by daily 10 mg/kg Momordin gavage (n=7-8); • 4) PFF injection, followed by daily 50 mg/kg Momordin gavage (n=7-8).

[3] = tested on: N27 dopaminergic cells; assay: Screening of SENP-1 inhibitors (LDH, MTT, ROS, Thioflavin-T) in PFF-induced PD model in vitro; assay type: cell-based, rat; conditions: N27 dopaminergic cells after exposure to PFF for 24 hrs
Source text: Cell Viability Assay. The MTT assay is a colorimetric assay that is based on the conversion of water-soluble MTT (3-(4,5-dimethylthiazol-2-yl)-2,5-diphenyltetrazolium bromide) into formazan crystal by mitochondrial dehydrogenase enzymes, soluble in 100% DMSO. The resulting solution is purple in color, and the color intensity is proportional to the viable cells for each well in a 96-well plate. A variety of SENP-1 inhibitors, such as SUMO-2 aldehyde, Momordin lc, streptonigrin, hinokiflavone, oleanolic acid and siRNA of SENP-1, were treated in N27 cells after PFF (1 μg/ml) exposure for 24 h. After adding 5 mM MTT dye to cells, the color intensity in MTT assays was measured using a spectrophotometer (SpectraMax M5e, Molecular devices, Dover, USA), at 570 nm with a reference wavelength of 630 nm. The cells were incubated with the MTT reagent (ab211091, Abcam) at 37° C. for 3 h, followed by solubilizing the formazan crystals in solution.
Cytotoxicity Assay. The lactate dehydrogenase (LDH) is a cytosolic enzyme that is released into the media during cellular stress and increased levels of cytotoxicity. The cytotoxicity assay was measured using reagents from the Pierce LDH Cytotoxicity Assay Kit (88954, Thermo). For the assay, 50 μL of media from each well after PFF exposure, followed by SENP-1 treatment, was put into wells of a new 96-well plate. The LDH reagents were prepared according to the protocol provided, and 50 μL of the LDH reagent was mixed into each well. The total 100 μL of media containing LDH and its reagent were incubated at 37° C. for 30 min, followed by the application of a stop solution. The mixture was analyzed using a spectrophotometer (SpectraMax M5e, Molecular devices) at 490 nm with a reference wavelength of 680 nm.
ROS Levels and Thioflavin-T Assessment. The reactive oxygen species (ROS) is a released byproduct during oxidative stress. On the other hand, thioflavin-T is an assay used to understand the level of protein aggregation that can be detrimental to cell survival. In order to assess the level of oxidative stress, all the SENP-1 inhibitors treated cells were incubated in media containing 5 μg/mL of the ROS reagent CellROX deep red reagent (C10422, Thermo Fisher Scientific) and 25 μg/mL of thioflavin-T reagent (CAS: 2390-54-7, Acros Organics) at 37° C. for 30 min. The cells were then washed 3 times with warm phosphate-buffered saline (PBS) without Ca^2+ or Mg^2+ (137 mM NaCl, 2.7 mM KCl, 4.3 mM Na2HPO4, and 1.47 mM KH2PO4), and several images from each well were collected using EVOS FL Cell Imaging Systems (Invitrogen, MA, USA). […] The intensity of red fluorescence corresponding to ROS levels and green labels corresponding to protein aggregation was analyzed by blinded raters using ImageJ. […]

CC1(C)CC[C@]2(C(=O)O)CC[C@]3(C)C(=CC[C@@H]4[C@@]5(C)CC[C@H](O[C@@H]6O[C@H](C(=O)O)[C@@H](O)[C@H](O[C@@H]7OC[C@@H](O)[C@H](O)[C@H]7O)[C@H]6O)C(C)(C)[C@@H]5CC[C@]43C)[C@@H]2C1 [Momordin lc]
level of SENP-1 (Western blot) [1]: reduced the level of SENP-1 | SUMO-1 conjugated α-synuclein in the MB (α-synuclein IP) ([2]; midbrain): increase in SUMO-1 conjugated α-synuclein | SUMO-1 conjugated α-synuclein in the STR (α-synuclein IP) ([2]; striatum): increase in SUMO-1 conjugated α-synuclein | efficacy in preventing protein aggregation-mediated damage and reversing PFF-induced damage (LDH, MTT, ROS, Thioflavin-T assays) [3]: clearly efficacious
